In brackets after ≈: the same amount, converted by molar mass. Where two headings read alike, the source gives them in different places.
Key:
[1] = system: E coli carrying specific resistance determinants; assay: MIC by broth microdilution, E coli carrying specific resistance determinants; assay type: cell-based; settings: Escherichia coli; for MIC50: Table 2B (Example 2)
[2] = system: rabbit reticulocyte ribosomes; assay: in-vitro translation assay, rabbit reticulocyte ribosomes; assay type: biochemical; settings: mammalian cytosolic ribosomes (rabbit)
M. smegmatis SZ380 = assay: MIC by broth microdilution, M. smegmatis; settings: Mycolicibacterium smegmatis
[3] = system: Enterobacter cloacae AG290; assay: MIC by broth microdilution, Enterobacter cloacae; assay type: cell-based; settings: strain AG290 Enterobacter cloacae; read-out: MIC AG290 E. cloacae
[4] = system: wild type bacterial ribosomes; assay: in-vitro translation assay, bacterial ribosomes; assay type: biochemical
Description: The antiribosomal activity of these compounds was investigated with cell-free translation assays using both wild type bacterial ribosomes and hybrid ribosomes carrying eukaryotic decoding A sites enabling the prediction of selectivity.

MRSA = assay: MIC by broth microdilution, MRSA isolates; assay type: cell-based; settings: for MIC50 / MIC: Staphylococcus aureus, MRSA

## NC[C@@H]1O[C@H](O[C@H]2[C@@H](O)[C@H](O[C@@H]3[C@@H](O)[C@H](N)C[C@H](N)[C@H]3O[C@H]3O[C@H](CO)[C@@H](O)[C@H](O)[C@H]3N)O[C@@H]2CO)[C@H](N)[C@@H](O)[C@@H]1O [paromomycin, reference compound]
[1]; read-out: MIC50 E coli pH414 AAC(6′)-I, pH414 AAC(6′)-I
  MIC50: 2 µg/mL (≈ 3.25 µM)
[1]; read-out: MIC50 E coli pH415 AAC(6′)-II, pH415 AAC(6′)-II
  MIC50: 2 to 4 µg/mL (≈ 3.25 to 6.5 µM)
[1]; read-out: MIC50 E coli pH421 APH(3′)-I, pH421 APH(3′)-I
  MIC50: > 128 µg/mL
[1]; read-out: MIC50 E coli pH422 APH(3′)-II, pH422 APH(3′)-II
  MIC50: > 128 µg/mL
[1]; read-out: MIC50 E coli pH423 APH(3)-VI, pH423 APH(3)-VI
  MIC50: > 128 µg/mL
[1]; read-out: MIC50 E coli pH432 ANT(4′), pH432 ANT(4′)
  MIC50: 1 to 2 µg/mL (≈ 1.62 to 3.25 µM)
[1]; read-out: MIC AAC(6′)
  MIC: 2 to 4 µg/mL (≈ 3.25 to 6.5 µM)
[1]; read-out: MIC AG003 E. coli AAC(3)-II
  MIC: 2 to 4 µg/mL (≈ 3.25 to 6.5 µM)
[1]; read-out: MIC AG036 ANT(4′,4′′)
  MIC: 32 to 64 µg/mL (≈ 52 to 104 µM)
[1]; read-out: MIC AG037 APH(3′)-III
  MIC: > 128 µg/mL
[1]; read-out: MIC AG037 E. coli APH(3′)-III
  MIC: > 128 µg/mL
[1]; read-out: MIC AG103 armA
  MIC: 2 µg/mL (≈ 3.25 µM)
[1]; read-out: MIC AG163 E. coli APH(3′)-I
  MIC: > 128 µg/mL
[1]; read-out: MIC AG166 E. coli APH(3′)-II
  MIC: > 128 µg/mL
[1]; read-out: MIC ANT(4′)
  MIC: 32 to 64 µg/mL (≈ 52 to 104 µM)
[1]; read-out: MIC APH(3)-VI
  MIC: > 64 µg/mL
[1]; read-out: MIC APH(3′)-I
  MIC: > 64 µg/mL
[1]; read-out: MIC APH(3′)-II
  MIC: > 64 µg/mL
[1]; read-out: MIC APH(3′)-III
  MIC: > 64 µg/mL
[1]; read-out: MIC APH(3′)-VI
  MIC: > 64 µg/mL
[1]; read-out: MIC E coli AG007 ANT(3″) AAC(3)-I
  MIC: 4 µg/mL (≈ 6.5 µM)
[1]; read-out: MIC E coli AG103 ArmA
  MIC: 1 to 2 µg/mL (≈ 1.62 to 3.25 µM)
[1]; read-out: MIC E coli AG106 AAC(2′)
  MIC: > 64 µg/mL
[1]; read-out: MIC E coli AG163/164 APH(3′)-Ia
  MIC: > 128 µg/mL
[1]; read-out: MIC E coli AG166 APH(3′)-IIa
  MIC: > 128 µg/mL
[1]; read-out: MIC E coli AG173 AAC(3)-IV
  MIC: 2 to 4 µg/mL (≈ 3.25 to 6.5 µM)
[1]; read-out: MIC E coli AG182 AAC(3)-IV APH(3′)-Ia
  MIC: > 128 µg/mL
[1]; read-out: MIC E. coli AAC(2′) AG106
  MIC: > 64 µg/mL
[1]; read-out: MIC E. coli AAC(2′) pH434
  MIC: > 64 µg/mL
[1]; read-out: MIC E. coli AG106 AAC(2′)-Ia
  MIC: > 64 µg/mL
[1]; read-out: MIC E. coli pGB2armA armA
  MIC: 2 µg/mL (≈ 3.25 µM)
[1]; read-out: MIC E. coli pH434 AAC(2′)-Ib
  MIC: > 64 µg/mL
[1]; read-out: MIC pH414 AAC(6′)-I
  MIC: 2 µg/mL (≈ 3.25 µM)
[1]; read-out: MIC pH415 AAC(6′)-II
  MIC: 2 to 4 µg/mL (≈ 3.25 to 6.5 µM)
[1]; read-out: MIC pH421 APH(3)-I
  MIC: > 128 µg/mL
[1]; read-out: MIC pH421 E. coli APH(3′)-I
  MIC: > 128 µg/mL
[1]; read-out: MIC pH422 APH(3′)-II
  MIC: > 128 µg/mL
[1]; read-out: MIC pH422 E. coli APH(3′)-II
  MIC: > 128 µg/mL
[1]; read-out: MIC pH423 APH(3′)-VI
  MIC: > 128 µg/mL
[1]; read-out: MIC pH423 E. coli APH(3′)-VI
  MIC: > 128 µg/mL
[1]; read-out: MIC pH432 ANT(4′)
  MIC: 1 to 2 µg/mL (≈ 1.62 to 3.25 µM)
[2]
  IC50: 21000 nM
M. smegmatis SZ380; SZ380, read-out: MIC M. smegmatis SZ380 WT, SZ380 WT, Table 5 (Example 3)
  MIC: 1 µg/mL (≈ 1.62 µM)
M. smegmatis SZ380; SZ380, read-out: MIC SZ380 M. smegmatis, strain SZ380 Mycobacterium smegmatis
  MIC: 1 µg/mL (≈ 1.62 µM)
[3]
  MIC: 2 µg/mL (≈ 3.25 µM)
[4]; Mycobacterium smegmatis ribosomes, read-out: IC50 Bacterial
  IC50: 40 nM
[4]; bacterial ribosome, Table 3 (Example 1), read-out: IC50 Bac
  IC50: 40 nM
[4]; bacterial ribosome, Table 3 (Example 2), read-out: IC50 Bac
  IC50: 40 nM
[4]; bacterial ribosome, Table 4 (Example 3), read-out: IC50 Bac
  IC50: 40 nM
MRSA; read-out: MIC50 MRSA AG39
  MIC50: > 256 µg/mL
MRSA; read-out: MIC50 MRSA AG42
  MIC50: > 256 µg/mL
MRSA; read-out: MIC AG039 MRSA AAC(6′)-I ANT(4′)-I
  MIC: > 256 µg/mL
MRSA; read-out: MIC AG042 MRSA AAC(6′)-I ANT(4′)-I APH(2′)
  MIC: > 256 µg/mL
MRSA; read-out: MIC MRSA AG039
  MIC: > 256 µg/mL
MRSA; read-out: MIC MRSA AG042
  MIC: > 256 µg/mL
MRSA; strain AG38, Table 1 (Example 1), read-out: MIC50 MRSA AG38
  MIC50: 4 µg/mL (≈ 6.5 µM)
MRSA; strain AG38, Table 1 (Example 2), read-out: MIC50 MRSA AG38
  MIC50: 4 µg/mL (≈ 6.5 µM)
MRSA; strain AG44, Table 1 (Example 1), read-out: MIC50 MRSA AG44
  MIC50: 4 to 8 µg/mL (≈ 6.5 to 13 µM)
MRSA; strain AG44, Table 1 (Example 2), read-out: MIC50 MRSA AG44
  MIC50: 4 to 8 µg/mL (≈ 6.5 to 13 µM)
MRSA; clinical isolate AG038, Table 1 (Example 3), read-out: MIC MRSA AG038
  MIC: 4 µg/mL (≈ 6.5 µM)
MRSA; clinical isolate AG038, read-out: MIC AG038 MRSA
  MIC: 4 µg/mL (≈ 6.5 µM)
MRSA; clinical isolate AG044, Table 1 (Example 3), read-out: MIC MRSA AG044
  MIC: 4 to 8 µg/mL (≈ 6.5 to 13 µM)
MRSA; clinical isolate AG044, read-out: MIC AG044 MRSA
  MIC: 4 to 8 µg/mL (≈ 6.5 to 13 µM)
MRSA; strain AG39, Table 1 (Example 2)
  MIC50 MRSA AG39: >256 µg/mL
MRSA; strain AG42, Table 1 (Example 2)
  MIC50 MRSA AG42: >256 µg/mL
